Experimental data from PubChem BioAssay AID2060910 (Molecular Pharmacology Branch, DTP, NCI, 2025).

Tested on: 242566-281-R-J2-PDC complex spheroid viability
Assay: Anticancer human tumor 242566-281-R-J2-PDC patient-derived pancreatic carcinoma cell line growth inhibition [RAS]
Details: for IC50: curve of first compound; for viability, T/C: stronger effect = lower value; active = viability on the fitted dose curve at most 10% of control; inactive = the rest
From the text: RAS pathway inhibitors in Combinations in Complex Spheroids
A high-throughput screen of multi-cell type tumor spheroids was designed to identify active combinations of RAS pathway inhibitors and targeted small molecules. Complex spheroids include a stromal component modeled by human endothelial cells (HUVEC) and fibroblasts modeled by human mesenchymal stem cells (MSCs). The concentration ranges selected for each drug and investigational agent were based upon clinically achievable concentrations if the clinical Cmax of the agent was known.
Compounds. The drugs and investigational agents: abemaciclib (NSC768073), cobimetinib (NSC768068), divarasib (GDC6063, NSC841802), docetaxel (NSC628503), GDC-1971 (RLY-1971, NSC841576), gemcitabine (NSC613327), inavolisib (NSC800729), ipatasertib (NSC767898), KB-0742 (NSC834161), MRTX-1133 (NSC836407), osimertinib (NSC779217), RMC-4630 (NSC839698), RMC-6236 (NSC851965), RMC-6291 (NSC852671), Ro-3306 (NSC812927), sapanisertib (NSC764658), SN-38 (NSC673596), staurosporine (NSC755774), SY5609 (NSC837396), and tovorafenib (DAY101, NSC766906), were obtained from the National Cancer Institute (NCI) Developmental Therapeutics Program Chemical Repository. The FDA-approved anticancer drug set is available from the NCI Developmental Therapeutics Program. […] The stock solutions were prepared in dimethyl sulfoxide (DMSO, Sigma-Aldrich, St. Louis, MO, cat. D2650) at 800-fold the tested concentration and stored at -70 degrees C prior to their use. All drugs and investigational agents were tested over a range starting from a high concentration at or near the clinical Cmax and decreasing in half-log increments. If the clinical Cmax for an agent had not been determined, the highest concentration tested was 10 microM.
Cell Culture. All cells were maintained in an incubator at 37 degrees C and 5% CO2 with 95% humidity. The PDC lines were cultured according to standard operating procedures established by the NCI PDMR. All PDCs were thawed and cultured in Matrigel-coated flasks prepared with a working solution of 1X Ham's F-12 nutrient mix, without supplementation (Invitrogen, Waltham, MA, cat. 11765054), 100 U/mL penicillin-streptomycin (Invitrogen, cat. 15140122), and 2.5% Matrigel (Corning Inc., Corning, NY, cat. 354248) for the first three passages. The 362531-283-R-J2-PDC and 782815-120-R-J1-PDC lines were cultured in 6C/Colon 1B media, which includes advanced DMEM/F-12 (Thermo Fisher Scientific, cat. 12634028), 10 mM HEPES (Thermo Fisher Scientific, cat. 15630080), 1X GlutaMAX supplement (Thermo Fisher Scientific, cat. 35050061), 0.1 mg/mL primocin (InvivoGen, San Diego, CA, cat. ant-pm-2), 10% defined fetal bovine serum, heat inactivated (HyClone Laboratories Inc., Logan, UT, cat. SH30070.03HI), 50% L-WRN conditioned media (ATCC, cat. CRL-3276), 1.25 mM N-Acetyl-L-cysteine (Sigma-Aldrich, cat. A9165), 10 mM nicotinamide (Sigma-Aldrich, cat. N0636), 1X B-27 supplement (Thermo Fisher Scientific, cat. 17504044), 1X N-2 supplement (Thermo Fisher Scientific, cat. 17502048), 50 ng/mL human EGF (Thermo Fisher Scientific, cat. PHG0311), and 10 microM Y-27632 dihydrochloride (Tocris Bioscience, cat. 1254). The K12877-001-R-J1-PDC line was cultured in 6I media, which includes all 6C/Colon 1B media plus 10 ng/mL human FGF-10 (PeproTech, cat. 100-26), 1 ng/mL human FGF-2 (PeproTech, cat. 100-18B), 1 µM prostaglandin E2 (Tocris Bioscience, cat. 2296), […] hydrocortisone (Sigma-Aldrich, cat. H4001), and […] bovine insulin (Sigma-Aldrich, cat. I6634). The K86415-001-R-J1-PDC line was cultured in 6D media, which includes all 6C/Colon 1B media components minus the L-WRN conditioned media. The 485176-168-R4-J1-PDC was cultured in PANC media, which includes all 6C/Colon 1B media plus 100 ng/mL human FGF-10 (PeproTech, cat. 100-26), 500 nM SB-431542 (Selleckchem, cat. S1067), and 10 nM gastrin (Tocris Bioscience, cat. 3006). […]
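Note: spheroids exposed to compound for 7 days before readout.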
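Throughout, for viability, T/C: 100% = DMSO vehicle control wells.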

C[C@@H](NC(=O)c1ncnc(N)c1Cl)c1ncc(C(=O)Nc2cc(C(F)(F)F)c(Cl)cn2)s1 + CCn1c(-c2cccnc2C(C)OC)c2c3cc(ccc31)N1CCOC(CC(NC(=O)C(C(C)C)N(C)C(=O)C3(F)CCN(C(=O)C#CC(C)(C)N(C)C)CC3)C(=O)N3CCCC(N3)C(=O)OCC(C)(C)C2)C1
> 10 µM: IC50 (second compound 0.000949 µM) | IC50 (second compound 0.003 µM) | IC50 (second compound 0.00949 µM) | IC50 (second compound 0.03 µM) | IC50 (second compound 0.0949 µM) | IC50 (second compound 0.3 µM)
inactive: viability, T/C (second compound 0.000949 µM, first compound 0.0316 µM) 126% | viability, T/C (second compound 0.000949 µM, first compound 0.1 µM) 107% | viability, T/C (second compound 0.000949 µM, first compound 0.316 µM) 112% | viability, T/C (second compound 0.000949 µM, first compound 1 µM) 103% | viability, T/C (second compound 0.000949 µM, first compound 3.16 µM) 107% | viability, T/C (second compound 0.000949 µM, first compound 10 µM) 63.8% | viability, T/C (second compound 0.003 µM, first compound 0.0316 µM) 106% | viability, T/C (second compound 0.003 µM, first compound 0.1 µM) 100% | viability, T/C (second compound 0.003 µM, first compound 0.316 µM) 106% | viability, T/C (second compound 0.003 µM, first compound 1 µM) 105% | viability, T/C (second compound 0.003 µM, first compound 3.16 µM) 97.3% | viability, T/C (second compound 0.003 µM, first compound 10 µM) 87.7% | viability, T/C (second compound 0.00949 µM, first compound 0.0316 µM) 113% | viability, T/C (second compound 0.00949 µM, first compound 0.1 µM) 104% | viability, T/C (second compound 0.00949 µM, first compound 0.316 µM) 95.1% | viability, T/C (second compound 0.00949 µM, first compound 1 µM) 115% | viability, T/C (second compound 0.00949 µM, first compound 3.16 µM) 91.8% | viability, T/C (second compound 0.00949 µM, first compound 10 µM) 83.1% | viability, T/C (second compound 0.03 µM, first compound 0.0316 µM) 105% | viability, T/C (second compound 0.03 µM, first compound 0.1 µM) 90.8% | viability, T/C (second compound 0.03 µM, first compound 0.316 µM) 109% | viability, T/C (second compound 0.03 µM, first compound 1 µM) 90.6% | viability, T/C (second compound 0.03 µM, first compound 3.16 µM) 77.3% | viability, T/C (second compound 0.03 µM, first compound 10 µM) 101% | viability, T/C (second compound 0.0949 µM, first compound 0.0316 µM) 94.9% | viability, T/C (second compound 0.0949 µM, first compound 0.1 µM) 105% | viability, T/C (second compound 0.0949 µM, first compound 0.316 µM) 90.7% | viability, T/C (second compound 0.0949 µM, first compound 1 µM) 105% | viability, T/C (second compound 0.0949 µM, first compound 3.16 µM) 69.8% | viability, T/C (second compound 0.0949 µM, first compound 10 µM) 98.1% | viability, T/C (second compound 0.3 µM, first compound 0.0316 µM) 90.8% | viability, T/C (second compound 0.3 µM, first compound 0.1 µM) 84.5% | viability, T/C (second compound 0.3 µM, first compound 0.316 µM) 108% | viability, T/C (second compound 0.3 µM, first compound 1 µM) 88.1% | viability, T/C (second compound 0.3 µM, first compound 3.16 µM) 85.5% | viability, T/C (second compound 0.3 µM, first compound 10 µM) 86.7%
